Columns and labels:
[1] = relative permittivity at zero frequency (dimensionless); φn = volume fraction of the nth substance listed; conditions: Liquid, Parallel plate capacitor
[2] = relative permittivity at zero frequency (dimensionless); conditions: Liquid, Parallel plate capacitor

CC(C)O [propan-2-ol] + Cc1ccccc1
relative permittivity at zero frequency, [1], 307116 kPa
Conditions | φ1 = 0.1 | φ1 = 0.2 | φ1 = 0.3 | φ1 = 0.4 | φ1 = 0.5 | φ1 = 0.6 | φ1 = 0.7 | φ1 = 0.8 | φ1 = 0.9 | φ1 = 1
303 K | 3.55 | 4.83 | 5.98 | 6.85 | 8.06 | 10.1 | 12.09 | 14.27 | 16.36 | 18.25
313 K | 3.12 | 4.48 | 5.55 | 6.45 | 7.75 | 9.73 | 11.75 | 13.65 | 15.98 | 17.75
323 K | 3 | 4.12 | 5.13 | 6.15 | 7.46 | 9.45 | 11.24 | 13.34 | 15.35 | 16.57

CCCO [propan-1-ol]
[2], 101 kPa
Conditions | relative permittivity at zero frequency
303 K | 19.95
313 K | 18.65
323 K | 17.82

Cc1ccccc1 [toluene] + CO
relative permittivity at zero frequency, [1], 101 kPa
Conditions | φ2 = 0.1 | φ2 = 0.2 | φ2 = 0.3 | φ2 = 0.4 | φ2 = 0.5 | φ2 = 0.6 | φ2 = 0.7 | φ2 = 0.8 | φ2 = 0.9
303 K | 5.82 | 7.85 | 10.56 | 12.89 | 15.86 | 19.25 | 22.54 | 25.91 | 29.34
313 K | 5.03 | 7.57 | 10.29 | 12.66 | 15.11 | 18.71 | 22.17 | 25.38 | 28.83
323 K | 4.87 | 6.92 | 9.82 | 12.14 | 14.72 | 18.27 | 21.67 | 24.95 | 28.42

Cc1ccccc1 [toluene] + CCO
relative permittivity at zero frequency, [1], 101 kPa
Conditions | φ2 = 0.1 | φ2 = 0.2 | φ2 = 0.3 | φ2 = 0.4 | φ2 = 0.5 | φ2 = 0.6 | φ2 = 0.7 | φ2 = 0.8 | φ2 = 0.9
303 K | 3.97 | 5.64 | 7.43 | 8.29 | 10.1 | 12.53 | 15.27 | 18.07 | 21.14
313 K | 3.42 | 5.27 | 6.34 | 7.98 | 9.7 | 12.26 | 14.78 | 17.72 | 20.78
323 K | 2.95 | 4.91 | 6.14 | 7.87 | 9.2 | 12.07 | 14.54 | 17.28 | 20.14

CO [methanol] + Cc1ccccc1
[1], 101 kPa, φ1 = 1
Conditions | relative permittivity at zero frequency
303 K | 33.19
313 K | 32.35
323 K | 31.98

CCO [ethanol] + Cc1ccccc1
[1], 101 kPa, φ1 = 1
Conditions | relative permittivity at zero frequency
303 K | 24.26
313 K | 23.85
323 K | 23.25

CCO [ethanol]
[2], 101 kPa
Conditions | relative permittivity at zero frequency
303 K | 24.26
313 K | 23.85
323 K | 23.25

Cc1ccccc1 [toluene] + CCCO
relative permittivity at zero frequency, [1], 101 kPa
Conditions | φ2 = 0.1 | φ2 = 0.2 | φ2 = 0.3 | φ2 = 0.4 | φ2 = 0.5 | φ2 = 0.6 | φ2 = 0.7 | φ2 = 0.8 | φ2 = 0.9
303 K | 3.28 | 4.67 | 6.29 | 7.59 | 8.79 | 11.44 | 13.76 | 15.84 | 18.08
313 K | 3.17 | 4.59 | 6.18 | 7.23 | 8.17 | 11.18 | 13.37 | 15.59 | 17.87
323 K | 2.98 | 4.42 | 5.95 | 6.89 | 7.88 | 10.89 | 13.18 | 15.29 | 17.24

CO [methanol]
[2], 101 kPa
Conditions | relative permittivity at zero frequency
303 K | 33.19
313 K | 32.35
323 K | 31.98

CCCO [propan-1-ol] + Cc1ccccc1
[1], 101 kPa, φ1 = 1
Conditions | relative permittivity at zero frequency
303 K | 19.95
313 K | 18.65
323 K | 17.82

CC(C)O [propan-2-ol]
[2], 307116 kPa
Conditions | relative permittivity at zero frequency
303 K | 18.25
313 K | 17.75
323 K | 16.57

Reference: the NIST ThermoML archive (doi:10.1016/j.tca.2013.05.022)
